The test system of the data set is rodent carcinogenicity bioassays, tumor incidence. Briefly: CCRIS carcinogenicity studies. Conditions: Dose: 0, Dose: 0. The method in brief:
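NCI-built, expert-reviewed records of carcinogenicity and related test outcomes (mutagenicity, tumor promotion/inhibition) compiled from published and report sources, historical span 1985-2011, not updated.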

The source made the active and inactive calls. No rule for the calls is given here.

On to `C[C@H](CCC(=O)O)[C@H]1CC[C@H]2[C@@H]3CC[C@@H]4C[C@H](O)CC[C@]4(C)[C@H]3CC[C@]12C`, for which the carcinogen call (Species: MOUSE, Strain/Sex: B6C3F1/FEMALE, Route: GAVAGE, 125, 250 MG/KG IN CORN OIL, 125, 250 MG/KG IN CORN OIL) is “inactive; negative”; the carcinogen call (Species: MOUSE, Strain/Sex: B6C3F1/MALE, Route: GAVAGE, 125, 250 MG/KG IN CORN OIL, 125, 250 MG/KG IN CORN OIL) is “inactive; negative”; the carcinogen call (Species: RAT, Strain/Sex: F344/FEMALE, Route: GAVAGE, 250, 500 MG/KG IN CORN OIL, 250, 500 MG/KG IN CORN OIL) is “inactive; negative”; the carcinogen call (Species: RAT, Strain/Sex: F344/MALE, Route: GAVAGE, 250, 500 MG/KG IN CORN OIL, 250, 500 MG/KG IN CORN OIL) was “inactive; negative”.
`CCCCCN(CCCCC)N=O`: the carcinogen call is “active; positive” (Species: RAT, Strain/Sex: WISTAR/FEMALE, Route: SUBCUTANEOUS, 62.5, 125, 250 MG/KG BW 1/WK FOR 25 WK (STUDY DURATION: 1 YR), 62.5, 125, 250 MG/KG BW 1/WK FOR 25 WK (STUDY DURATION: 1 YR), Tumor Site: Type of Lesion: NASAL CAVITY: POLYPOID ADENOMA, LUNG: BRONCHIOALVEOLAR ADENOMA) and “active; positive” (Species: RAT, Strain/Sex: WISTAR/MALE, Route: SUBCUTANEOUS, 62.5, 125, 250 MG/KG BW 1/WK FOR 25 WK (STUDY DURATION: 1 YR), 62.5, 125, 250 MG/KG BW 1/WK FOR 25 WK (STUDY DURATION: 1 YR), Tumor Site: Type of Lesion: NASAL CAVITY: POLYPOID ADENOMA, LUNG: BRONCHIOALVEOLAR ADENOCARCINOMA, BRONCHIOALVEOLAR ADENOMA).
Take `CCCCCC(O)/C=C/C=O` (stereo not given): the carcinogen call (Species: MOUSE, Strain/Sex: B6C3F1/FEMALE, Route: INTRAPERITONEAL, 750 NMOL TOTAL DOSE, 1/3 AND 2/3 OF THE TOTAL DOSE ADMINISTERED AT 8 AND 15 DAYS OF AGE RESPECTIVELY, ANIMALS TERMINA) was “inactive; negative”; the carcinogen call (Species: MOUSE, Strain/Sex: B6C3F1/FEMALE, Route: INTRAPERITONEAL, 1500 NMOL TOTAL DOSE, 1/3 AND 2/3 OF THE TOTAL DOSE ADMINISTERED AT 8 AND 15 DAYS OF AGE RESPECTIVELY, ANIMALS TERMIN) was “inactive; negative”; the carcinogen call (Species: MOUSE, Strain/Sex: B6C3F1/MALE, Route: INTRAPERITONEAL, 750 NMOL TOTAL DOSE, 1/3 AND 2/3 OF THE TOTAL DOSE ADMINISTERED AT 8 AND 15 DAYS OF AGE RESPECTIVELY, ANIMALS TERMINA) is “inactive; negative”; the carcinogen call (Species: MOUSE, Strain/Sex: B6C3F1/MALE, Route: INTRAPERITONEAL, 1500 NMOL TOTAL DOSE, 1/3 AND 2/3 OF THE TOTAL DOSE ADMINISTERED AT 8 AND 15 DAYS OF AGE RESPECTIVELY, ANIMALS TERMIN) is “inactive; negative”; the carcinogen call (Species: MOUSE, Strain/Sex: CD-1/FEMALE, Route: INTRAPERITONEAL, 50, 100, 200 NMOL/MOUSE (TOTAL DOSE) ADMINISTERED IN 3 DOSES ON DAY 1, 8 AND 15 OF STUDY (STUDY DURATION: 6 WK), 50, 100, 200 NMOL/MOUSE (TOTAL DOSE) ADMINISTERED IN 3 DOSES ON DAY 1, 8 AND 15 OF STUDY (STUDY DURATION: 6 WK)) was “inactive; negative”; the carcinogen call (Species: MOUSE, Strain/Sex: CD-1/MALE, Route: INTRAPERITONEAL, 50, 100, 200 NMOL/MOUSE (TOTAL DOSE) ADMINISTERED IN 3 DOSES ON DAY 1, 8 AND 15 OF STUDY (STUDY DURATION: 6 WK), 50, 100, 200 NMOL/MOUSE (TOTAL DOSE) ADMINISTERED IN 3 DOSES ON DAY 1, 8 AND 15 OF STUDY (STUDY DURATION: 6 WK)) is “inactive; negative”.
As to `Clc1cc2c(c(Cl)c1Cl)Oc1cc(Cl)c(Cl)c(Cl)c1O2`, the carcinogen call reads like this: (Species: MOUSE, Strain/Sex: B6C3F1/FEMALE, Route: GAVAGE, 2.5, 5.0, 10.0 UG/KG/WK (9:1 CORN OIL-ACETONE, 2 D/WK) FOR 104 WK (STUDY DURATION: 105-108 WK), 2.5, 5.0, 10.0 UG/KG/WK (9:1 CORN OIL-ACETONE, 2 D/WK) FOR 104 WK (STUDY DURATION: 105-108 WK), Tumor Site: Type of Lesion: LIVER: HEPATOCELLULAR ADENOMA OR CARCINOMA) “active; positive”; (Species: MOUSE, Strain/Sex: B6C3F1/MALE, Route: GAVAGE, 1.25, 2.5, 5 UG/KG/WK (9:1 CORN OIL-ACETONE, 2 D/WK) FOR 104 WK (STUDY DURATION: 105-108 WK), 1.25, 2.5, 5 UG/KG/WK (9:1 CORN OIL-ACETONE, 2 D/WK) FOR 104 WK (STUDY DURATION: 105-108 WK), Tumor Site: Type of Lesion: LIVER: HEPATOCELLULAR ADENOMA, CARCINOMA) “active; positive”; (Species: MOUSE, Strain/Sex: SWISS/FEMALE, Route: DERMAL, 0.01 UG (SUSPENDED IN 0.1 ML ACETONE APPLIED 3 DAYS/WK)) “inactive; negative”; (Species: MOUSE, Strain/Sex: SWISS/MALE, Route: DERMAL, 0.01 UG (SUSPENDED IN 0.1 ML ACETONE APPLIED 3 DAYS/WK)) “inactive; negative”; (Species: RAT, Strain/Sex: OSBORNE-MENDEL/FEMALE, Route: GAVAGE, 1.25, 2.5, 5 UG/KG/WK (9:1 CORN OIL-ACETONE, 2 D/WK) FOR 104 WK (STUDY DURATION: 105-108 WK), 1.25, 2.5, 5 UG/KG/WK (9:1 CORN OIL-ACETONE, 2 D/WK) FOR 104 WK (STUDY DURATION: 105-108 WK), Tumor Site: Type of Lesion: LIVER: NEOPLASTIC NODULE, HEPATOCELLULAR CARCINOMA) “active; positive”; (Species: RAT, Strain/Sex: OSBORNE-MENDEL/MALE, Route: GAVAGE, 1.25, 2.5, 5 UG/KG/WK (9:1 CORN OIL-ACETONE, 2 D/WK) FOR 104 WK (STUDY DURATION: 105-108 WK), 1.25, 2.5, 5 UG/KG/WK (9:1 CORN OIL-ACETONE, 2 D/WK) FOR 104 WK (STUDY DURATION: 105-108 WK), Tumor Site: Type of Lesion: LIVER: NEOPLASTIC NODULE, HEPATOCELLULAR CARCINOMA) “equivocal”.
For `C1CC[CH]([Sn]([CH]2CCCCC2)[CH]2CCCCC2)CC1`, the carcinogen call runs as follows: (Species: Mouse, Strain/Sex: B6C3F1/Female (50/group), Route: Oral, 1, 3, 6 mg/kg of 98% pure cyhexatin in diet for 2 years, 1, 3, 6 mg/kg of 98% pure cyhexatin in diet for 2 years) “inactive; negative, (dpr evaluator indicated inadequate justification of dose and too narr”; (Species: Mouse, Strain/Sex: B6C3F1/Male (50/group), Route: Oral, 1, 3, 6 mg/kg of 98% pure cyhexatin in diet for 2 years, 1, 3, 6 mg/kg of 98% pure cyhexatin in diet for 2 years) “inactive; negative, (dpr evaluator indicated inadequate justification of dose and too narr”.

The values above are taken from PubChem BioAssay AID1259411 (Chemical Carcinogenesis Research Information System (CCRIS), 2018).
